Source: patent US10857105B2, “Compounds and compositions for intracellular delivery of therapeutic agents” (ModernaTX, Inc., priority 2017, dated 2020)

Key:
modified luciferase = assay: Luciferase expression in liver, lung, spleen and femur 6 hours after intravenous administration to mice; assay type: in vivo; conditions: 6 hours after intravenous 0.5 mpk, mice
Outline: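 Nanoparticle formulations of the modified luciferase were given intravenously to mice (n=3) at 0.5 mpk. Bioluminescence was measured after 6 hours as total light flux. Standard MC3 formulation and PBS run as controls.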

[1] = Chemical stability of lipids in ethanol at room temperature and 37° C. (lipid purity); assay type: physicochemical
Description: Ester linkages were previously reported to trigger metabolism by esterases in vivo. (See Fukami, T. et al. Drug Metab. Pharmacokinet. 2012, 27, 466-477, the content of which is incorporated by reference herein in its entirety). […] (See Maier M. A., Mol. Ther. 2013, 21, 1570-1578, the content of which is incorporated herein in its entirety) First, the chemical stability of the lipids was evaluated by measuring ethanol stability at room temperature and 37° C. (Table 39). […] LNPs formed with compound 138 were larger, with a surface pKa>7. […] Removal of one ester function (compound 136) afforded LNPs with improved physiochemical characteristics and lower LNP surface pKa.

hEPO mRNA [2] = assay: hEPO expression and cytokine induction after intravenous administration to mice; assay type: in vivo; conditions: mice
Description: FIG. 17 is a graph showing the hEPO mRNA expression in CD1-mice measured 3 h (left block), 6 h (middle block) and 24 h (right block) after intravenous administration of various nanoparticle compositions. Numbers 1-13 refer to compositions containing an mRNA expressing hEPO and the following: 1: Compound 147, 2: Compound 184, 3: Compound 232; 4: Compound 189; 5: Compound 200; 6: Compound 233; 7: Compound 234; 8: Compound 235; 9: Compound 237; 10: Compound 239; 11: Compound 243; 12: MC3; 13: PBS. […]
Sample formulations of nanoparticle compositions including different lipids are generally first evaluated according to Luc expression in vivo. The activity of several such compositions was further evaluated using an mRNA encoding hEPO. Nanoparticle compositions including Compounds 6, 18, 25, 30, 108-112, 60, and 122, or MC3 were prepared according to Example 2.
(§1) The expression of hEPO and cytokine induction in mice intravenously administered a nanoparticle composition at a dose of 0.5 mpk were measured at 3, 6, and 24 hours. […] The expression of hEPO in mice intramuscularly administered a nanoparticle composition from Table 1B at a dose of 0.01 mpk were measured at 3, 6, and 24 hours. […] (see
Table 12 compares the nanoparticle compositions including compounds according to Formula (I), (IA), (IB), (II), (IIa), (IIb), (IIc), (IId), (IIe), (IIf), (IIg), or (III) to the compositions including MC3 on the basis of expression and flux levels. […] Thus, these lipids may be useful in nanoparticle composition therapeutics.

IL-6, IP-10 = assay: Cytokine induction (IL-6, IP-10) in mice 6 hours after intravenous administration; assay type: in vivo; set-up: unit not given here; conditions: intravenous 0.5 mpk
Outline: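 Mice dosed intravenously with nanoparticle compositions at 0.5 mpk; serum cytokine concentrations (IL-6, IP-10) measured at 6 hours. MC3 formulation and PBS controls run alongside.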

CD-1 mice = assay: Luciferase expression after intravenous delivery of luciferase mRNA LNPs (bioluminescent imaging); assay type: in vivo; conditions: intravenous 0.5 mg/kg mRNA dose
Description: Whole body and ex vivo organ bioluminescent imaging of mice: CD-1 mice were injected 15 minutes prior to the imaging timepoint intraperitoneally (IP) with 200 μL Xenolight D-luciferin K+ salt, diluted in PBS just prior to use to a concentration of 15 mg/mL. Ex vivo imaging of organs was completed, within 25 minutes of luciferin administration. All images were quantified by region of interest for total flux.
[…] […] (See Semple, S.C. et al., Nature Biotech. 2010. 28, 172-176, Jayaraman, M., et al. Angew. Chem. Int. Ed. 2012, 51, 8529-8533, the entire contents of each of which are incorporated by reference herein in their entireties). To evaluate the efficiency of the new amino lipids, LNPs using the novel compounds were tested in vivo in mice using luciferase mRNA as a reporter. An MC3 LNP was included as a control in each experiment, enabling the comparison of LNPs from experiment to experiment. Measured luciferase activity also enabled the determination of protein bio-distribution.

[3] = Encapsulation efficiency of RNA in nanoparticle compositions (RIBOGREEN assay); assay type: physicochemical; conditions: Table 1A; lipid:DSPC:cholesterol:PEG-DMG 50:10:38.5:1.5 mol %
Outline: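 Lipid nanoparticles (ionisable lipid:DSPC:cholesterol:PEG-DMG 50:10:38.5:1.5 mol %) carrying N1-methylpseudouridine luciferase or hEPO mRNA diluted to about 5 μg/mL in TE, pH 7.5, with or without 2% Triton X-100, 15 min at 37° C. RiboGreen fluorescence (ex ~480, em ~520 nm) blank-subtracted; free RNA = intact/disrupted signal.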

[4] = Particle size and polydispersity index of nanoparticle compositions (Zetasizer Nano ZS); assay type: physicochemical
Outline: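 Size and PDI measured by Zetasizer Nano ZS in 1×PBS (zeta potential in 15 mM PBS). Lipid nanoparticles contained test ionizable lipid:DSPC:cholesterol:PEG-DMG at 50:10:38.5:1.5 mol % with N1-methyl-pseudouridine mRNA encoding luciferase or hEPO.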

[5] = tested on: modified luciferase (Luc) mRNA and H10 mRNA; assay: Expression after intramuscular administration of formulations including Luc mRNA and H10 mRNA; assay type: in vivo
Description: Sample formulations including both modified luciferase (Luc) mRNA and H10 mRNA were prepared and administered intramuscularly and the resulting expression and immunogenicity were evaluated simultaneously. Formulations including compounds according to Formula (I), (IA), (IB), (II), (IIa), (IIb), (IIc), (IId), (IIe), (IIf), (IIg), or (III) were prepared and administered at doses of 0.001 and 0.01 mpk (e.g., doses of 0.0005 mpk of a formulation including Luc mRNA and a formulation including H10 mRNA or doses of 0.005 mpk of a formulation including Luc mRNA and a formulation including H10 mRNA).
The fluxes measured upon intravenous and intramuscular administration are compared in Table 6. Fluxes are presented as fold increase over that measured for MC3 formulations.

luciferase (Luc) mRNA [6] = assay: Luciferase expression (whole body bioluminescence) after intravenous administration to mice; assay type: in vivo; conditions: intravenous, luciferase; for Novel lipid/MC3 expression ratio, i.v.: 6 hr. time point, relative to MC3 formulation
Outline: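 Mice (n=6) received lipid nanoparticle formulations carrying luciferase mRNA intravenously at 0.5 mg/kg. Whole-body bioluminescence was measured at 3, 6 and 24 h. Total flux was taken as area under the curve and expressed relative to a standard MC3 formulation.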

luciferase (Luc) mRNA [7] = assay: Luciferase expression after intramuscular administration to mice; assay type: in vivo; conditions: intramuscular, luciferase, 6 hr. time point, relative to MC3 formulation
Outline: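 CD-1 mice received lipid nanoparticle formulations of modified luciferase mRNA intramuscularly at 0.01 mpk. Bioluminescence total flux was measured, including at 6 h, and AUC was expressed relative to MC3 formulations. Immunogenicity was assessed in parallel.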

hEPO mRNA [8] = assay: hEPO expression after intramuscular administration to mice; assay type: in vivo; conditions: intramuscular, hEPO, 6 hr. time point, relative to MC3 formulation
Description: The numbers 1-11 in this figure correspond to MC3, Compounds 18, 25, 30, 108-112, 60, and 122 respectively.
as §1

[9] = Table 1A, lipid:DSPC:cholesterol:PEG-DMG 50:10:38.5:1.5 mol %

SMILES	Total Flux, Femur (modified luciferase)	Total Flux, Liver (modified luciferase)	Total Flux, Lung (modified luciferase)	Total Flux, Spleen (modified luciferase)	Lipid Purity, t = 96 h, 25° C. [1] [%]	Lipid Purity, t = 96 h, 37° C. [1] [%]	Lipid Purity, t = 0 [1] [%]	Cytokine induction, IL-6 (IL-6, IP-10)	Cytokine induction, IP-10 (IL-6, IP-10)	luciferase activity/expression compared to MC3 LNP control (words) (CD-1 mice)	EE [3] [%]	Size [4, 9] [nm]	Novel lipid/MC3 expression ratio, i.v. (luciferase (Luc) mRNA [6])	other results
CCCCC/C=C\C/C=C\CCCCCCCCN(CCO)CCCCCCCC(=O)OC(CCCCCCCC)CCCCCCCC [Compound 6, Heptadecan-9-yl 8-((2-hydroxyethyl)((9Z,12Z)-octadeca-9,12-dien-1-yl)amino)octanoate]	2.15E+06	1.09E+09	4.30E+06	3.03E+07	93.21	94.29	93.80	136.18	316.01	Equivalent expression to MC3 LNPs	–	–	–	hEPO expression, 3 h (hEPO mRNA [2]; intravenous 0.5 mpk, 3 h): 2.31e+06 pg/mL; Cytokine expression, IL-6 (6 h) (hEPO mRNA [2]; intravenous 0.5 mpk, 6 h): 10.15 pg/mL; Cytokine expression, IP-10 (6 h) (hEPO mRNA [2]; intravenous 0.5 mpk, 6 h): 116.66 pg/mL; hEPO expression, 6 h (hEPO mRNA [2]; intravenous 0.5 mpk, 6 h): 3.17e+06 pg/mL; hEPO expression, 24 h (hEPO mRNA [2]; intravenous 0.5 mpk, 24 h): 1.11e+06 pg/mL; hEPO concentrations compared with MC3 formulations (hEPO mRNA [2]; intravenous, 0.5 mpk, 3, 6 and 24 hours): higher hEPO concentrations than MC3 formulations at each time point
CCCCCCCCCOC(=O)CCCCCCCN(CCCCCCCC(=O)OC(CCCCCCCC)CCCCCCCC)CCN(C)C [Compound 14, Heptadecan-9-yl 8-((2-(dimethylamino)ethyl)(8-(nonyloxy)-8-oxooctyl)amino)octanoate]	4.91E+06	1.91E+08	4.74E+06	1.92E+08	92.07	91.90	92.08	75.29	621.49	–	95.24	–	–	luciferase activity/expression compared to MC3 LNP control (words) (CD-1 mice; 0.5 mg/kg): complete loss of delivery efficiency; luciferase activity/expression compared to MC3 LNP control (words) (CD-1 mice; listed as compound 14, 0.5 mg/kg): low levels of Luciferase expression
CCCCCCCCCOC(=O)CCCCCCCN(CCCCO)CCCCCCCC(=O)OC(CCCCCCCC)CCCCCCCC [Compound 20, Heptadecan-9-yl 8-((4-hydroxybutyl)(8-(nonyloxy)-8-oxooctyl)amino) octanoate]	1.31E+07	1.84E+09	2.66E+07	1.43E+08	–	–	–	126.83	2468.24	–	96.72	86.7	0.80	Size ([4]; Table 1C, compositions for subcutaneous administration): 86.7 nm; Expression upon intramuscular administration ([5]; doses of 0.001 and 0.01 mpk, 6 hours): highest expression at both dose levels; Fold increase in Luc expression over MC3 upon intramuscular administration ([5]; intramuscular): highest fold increase; Novel lipid/MC3 ratio, i.v. (luciferase (Luc) mRNA [6]; Table 3G, 6 hr. timepoint, relative to MC3): 0.80
CCCCCCCCCOC(=O)CCCCCCCN(CCCCCCCC(=O)OC(CCCCCCCC)CCCCCCCC)CCCN/C(=N/C#N)N(C)C [Compound 168, Heptadecan-9-yl (Z)-8-((3-(2-cyano-3,3-dimethylguanidino)propyl)(8-(nonyloxy)-8-oxooctyl)amino)octanoate]	–	–	–	–	–	–	–	–	–	–	91.4	102.3	0.11	Novel lipid/MC3 expression ratio, i.m. Luc (luciferase (Luc) mRNA [7]): 16.0; Novel lipid/MC3 expression ratio, i.m. hEPO (hEPO mRNA [8]): 6.3; Size ([4]; Table 1D, compositions for subcutaneous administration, # formulated with hEPO mRNA): 87.4 nm; Size ([4]; Table 1E, compositions for subcutaneous administration): 85.0 nm
CCCCCCCCC(CCCCCCCC)OC(=O)CCCCCCCN(CCO)CCCCCCCC(=O)OC(CCCCCCCC)CCCCCCCC [compound 29, Di(heptadecan-9-yl) 8,8′-((2-hydroxyethyl)azanediyl)dioctanoate]	9.56E+05	5.20E+08	9.83E+05	5.99E+06	97.67	98.10	97.017	69.54	1362.81	lower luciferase activity	96.99	–	–	–
